Measurements taken from the supplement of paper PMC10307832.

Key:
Test in all cases: relative viability (nuclei count vs DMSO), 5 days (fraction); higher = more cells survive
[1] = compound: CN1CCC(CNc2ccc3ncc(-c4cccc(OC(F)(F)F)c4)n3n2)CC1 [SGI-1776] + O=C(CCCCCCC(=O)Nc1ccccc1)NO [Vorinostat] (partner 1 µM)
How it was run: (§1)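 After 5 days of treatment, lung cancer cells in 1536-well plates were fixed and stained in a single step (final 0.05% Triton X-100, 1% formaldehyde, 1 ug/ml Hoechst) and their nuclei counted on 4× images. Treatment had been applied by pin tool the day after seeding as one drug alone or as a fixed anchor-drug dose with five library-drug doses (not always all listed) in √10 steps. Relative viability is the nuclei count of treated wells divided by that of vehicle wells, and values are medians of duplicate plates.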

[2] = compound: Nc1ccccc1NC(=O)c1ccc(CNC(=O)OCc2cccnc2)cc1 [Entinostat] + C[C@]1(O)C[C@@H](c2nc(-c3ccc4ccc(-c5ccccc5)nc4c3)c3c(N)nccn32)C1 [Linsitinib] (partner 1 µM)
How it was run: as §1

[3] = compound: CN1CCC(CNc2ccc3ncc(-c4cccc(OC(F)(F)F)c4)n3n2)CC1 [SGI-1776] + C[C@]1(O)C[C@@H](c2nc(-c3ccc4ccc(-c5ccccc5)nc4c3)c3c(N)nccn32)C1 [Linsitinib] (partner 1 µM)
How it was run: as §1

[4] = compound: CN1CCC(CNc2ccc3ncc(-c4cccc(OC(F)(F)F)c4)n3n2)CC1 [SGI-1776] + CC(=O)c1c(C)c2cnc(Nc3ccc(N4CCNCC4)cn3)nc2n(C2CCCC2)c1=O [Palbociclib] (partner 0.5 µM)
How it was run: as §1

In the case of ABC-1, the relative viability ([1]; first compound 0.08 µM) is reported as 1.02, the relative viability ([1]; first compound 0.8 µM) is reported as 1.14 and the relative viability ([1]; first compound 2.53 µM) is reported as 1.01. It also gave a relative viability ([1]; first compound 8 µM) of 0.702, a relative viability ([2]; first compound 0.02 µM) of 0.686 and a relative viability ([2]; first compound 0.06325 µM) of 0.992. The relative viability ([2]; first compound 0.2 µM) was 0.807, the relative viability ([2]; first compound 0.6325 µM) was 0.481 and the relative viability ([2]; first compound 2 µM) was 0.506. For the same cell line, the relative viability ([3]; first compound 0.08 µM) was 0.745, the relative viability ([3]; first compound 0.8 µM) was 0.895 and the relative viability ([3]; first compound 2.53 µM) was 0.883. It also gave a relative viability ([3]; first compound 8 µM) of 0.742, a relative viability ([4]; first compound 0.08 µM) of 0.661 and a relative viability ([4]; first compound 0.8 µM) of 0.98. It also gave a relative viability ([4]; first compound 2.53 µM) of 0.501 and a relative viability ([4]; first compound 8 µM) of 0.431.
LC-2-ad was tested, and the relative viability ([1]; first compound 0.08 µM) was 0.676, the relative viability ([1]; first compound 0.8 µM) was 0.709 and the relative viability ([1]; first compound 2.53 µM) was 0.663. For the same cell line, the relative viability ([1]; first compound 8 µM) was 0.66, the relative viability ([2]; first compound 0.02 µM) was 0.769 and the relative viability ([2]; first compound 0.06325 µM) was 0.831. For the same cell line, the relative viability ([2]; first compound 0.2 µM) was 0.7, the relative viability ([2]; first compound 0.6325 µM) was 0.489 and the relative viability ([2]; first compound 2 µM) was 0.219. The relative viability ([3]; first compound 0.08 µM) was 0.842, the relative viability ([3]; first compound 0.8 µM) was 0.959 and the relative viability ([3]; first compound 2.53 µM) was 0.911. For the same cell line, the relative viability ([3]; first compound 8 µM) was 0.639, the relative viability ([4]; first compound 0.08 µM) was 0.495 and the relative viability ([4]; first compound 0.8 µM) was 0.535. It also gave a relative viability ([4]; first compound 2.53 µM) of 0.457 and a relative viability ([4]; first compound 8 µM) of 0.467.
Cell Line NCI-H441 has a relative viability ([1]; first compound 0.08 µM) of 0.929, a relative viability ([1]; first compound 0.8 µM) of 0.761 and a relative viability ([1]; first compound 2.53 µM) of 0.867. The relative viability ([1]; first compound 8 µM) was 0.658, the relative viability ([2]; first compound 0.02 µM) was 0.483 and the relative viability ([2]; first compound 0.06325 µM) was 0.494. It also gave a relative viability ([2]; first compound 0.2 µM) of 0.524, a relative viability ([2]; first compound 0.6325 µM) of 0.262 and a relative viability ([2]; first compound 2 µM) of 0.13. For the same cell line, the relative viability ([3]; first compound 0.08 µM) was 0.506, the relative viability ([3]; first compound 0.8 µM) was 0.588 and the relative viability ([3]; first compound 2.53 µM) was 0.645. For the same cell line, the relative viability ([3]; first compound 8 µM) was 0.354, the relative viability ([4]; first compound 0.08 µM) was 0.204 and the relative viability ([4]; first compound 0.8 µM) was 0.219. The relative viability ([4]; first compound 2.53 µM) was 0.235 and the relative viability ([4]; first compound 8 µM) was 0.164.
NCI-H1915 gave a relative viability ([1]; first compound 0.08 µM) of 0.51, a relative viability ([1]; first compound 0.8 µM) of 0.555 and a relative viability ([1]; first compound 2.53 µM) of 0.492. It also gave a relative viability ([1]; first compound 8 µM) of 0.449, a relative viability ([2]; first compound 0.02 µM) of 1.1 and a relative viability ([2]; first compound 0.06325 µM) of 1.04. It also gave a relative viability ([2]; first compound 0.2 µM) of 0.966, a relative viability ([2]; first compound 0.6325 µM) of 0.912 and a relative viability ([2]; first compound 2 µM) of 0.459. The relative viability ([3]; first compound 0.08 µM) was 1.11, the relative viability ([3]; first compound 0.8 µM) was 1.12 and the relative viability ([3]; first compound 2.53 µM) was 1.13. It also gave a relative viability ([3]; first compound 8 µM) of 1.1, a relative viability ([4]; first compound 0.08 µM) of 0.534 and a relative viability ([4]; first compound 0.8 µM) of 0.541. It also gave a relative viability ([4]; first compound 2.53 µM) of 0.554 and a relative viability ([4]; first compound 8 µM) of 0.509.
With NCI-H1299 the relative viability ([2]; first compound 0.02 µM) was 0.962, the relative viability ([2]; first compound 0.06325 µM) was 0.914 and the relative viability ([2]; first compound 0.2 µM) was 0.95. The relative viability ([2]; first compound 0.6325 µM) was 0.754, the relative viability ([2]; first compound 2 µM) was 0.601 and the relative viability ([3]; first compound 0.08 µM) was 1.02. The relative viability ([3]; first compound 0.8 µM) was 0.972, the relative viability ([3]; first compound 2.53 µM) was 0.966 and the relative viability ([3]; first compound 8 µM) was 0.921.
Work on HCC-827 yielded a relative viability ([1]; first compound 0.08 µM) of 0.865, a relative viability ([1]; first compound 0.8 µM) of 0.908 and a relative viability ([1]; first compound 2.53 µM) of 0.858. For the same cell line, the relative viability ([1]; first compound 8 µM) was 0.806, the relative viability ([2]; first compound 0.02 µM) was 0.958 and the relative viability ([2]; first compound 0.06325 µM) was 0.883. It also gave a relative viability ([2]; first compound 0.2 µM) of 0.722, a relative viability ([2]; first compound 0.6325 µM) of 0.582 and a relative viability ([2]; first compound 2 µM) of 0.421. It also gave a relative viability ([3]; first compound 0.08 µM) of 0.961, a relative viability ([3]; first compound 0.8 µM) of 0.978 and a relative viability ([3]; first compound 2.53 µM) of 0.952. It also gave a relative viability ([3]; first compound 8 µM) of 0.875, a relative viability ([4]; first compound 0.08 µM) of 0.504 and a relative viability ([4]; first compound 0.8 µM) of 0.513. The relative viability ([4]; first compound 2.53 µM) was 0.509 and the relative viability ([4]; first compound 8 µM) was 0.383.
EMC-BAC-2 gave a relative viability ([1]; first compound 0.08 µM) of 0.551, a relative viability ([1]; first compound 0.8 µM) of 0.593 and a relative viability ([1]; first compound 2.53 µM) of 0.424. The relative viability ([1]; first compound 8 µM) was 0.298, the relative viability ([2]; first compound 0.02 µM) was 0.837 and the relative viability ([2]; first compound 0.06325 µM) was 0.915. The relative viability ([2]; first compound 0.2 µM) was 0.983, the relative viability ([2]; first compound 0.6325 µM) was 0.731 and the relative viability ([2]; first compound 2 µM) was 0.487. The relative viability ([3]; first compound 0.08 µM) was 0.868, the relative viability ([3]; first compound 0.8 µM) was 0.846 and the relative viability ([3]; first compound 2.53 µM) was 0.838. For the same cell line, the relative viability ([3]; first compound 8 µM) was 0.737, the relative viability ([4]; first compound 0.08 µM) was 0.537 and the relative viability ([4]; first compound 0.8 µM) was 0.52. For the same cell line, the relative viability ([4]; first compound 2.53 µM) was 0.518 and the relative viability ([4]; first compound 8 µM) was 0.514.
NCI-H596 was tested, and the relative viability ([1]; first compound 0.08 µM) was 0.583, the relative viability ([1]; first compound 0.8 µM) was 0.75 and the relative viability ([1]; first compound 2.53 µM) was 0.595. The relative viability ([1]; first compound 8 µM) was 0.485, the relative viability ([2]; first compound 0.02 µM) was 1.08 and the relative viability ([2]; first compound 0.06325 µM) was 1.17. For the same cell line, the relative viability ([2]; first compound 0.2 µM) was 0.958, the relative viability ([2]; first compound 0.6325 µM) was 0.9 and the relative viability ([2]; first compound 2 µM) was 0.799. It also gave a relative viability ([3]; first compound 0.08 µM) of 1.05, a relative viability ([3]; first compound 0.8 µM) of 0.999 and a relative viability ([3]; first compound 2.53 µM) of 0.981. For the same cell line, the relative viability ([3]; first compound 8 µM) was 0.943.
